Key:
Alternaria solani = assay: Test B: preventive spray on tomato seedlings, Alternaria solani (tomato early blight), visual disease rating; assay type: in vivo; conditions: 100 = 100% disease control, 0 = no disease control relative to controls
Text: General protocol for preparing test suspensions for Tests A-H: the test compounds were first dissolved in acetone in an amount equal to 3% of the final volume and then suspended at the desired concentration (in ppm) in acetone and purified water (50/50 mix by volume) containing 250 ppm of the surfactant Trem® 014 (polyhydric alcohol esters). The resulting test suspensions were then used in Tests A-F. Spraying a 40 ppm test suspension to the point of run-off on the test plants was the equivalent of a rate of 160 g/ha. Unless otherwise indicated, the rating values indicate a 40 ppm test suspension was used. The test suspension was sprayed to the point of run-off on tomato seedlings. The following day the seedlings were inoculated with a spore suspension of Alternaria solani (the causal agent of tomato early blight) and incubated in a saturated atmosphere at 27° C. for 48 h, and then moved to a growth chamber at 24° C. for 5 days, after which time visual disease ratings were made. Results for Tests A-F are given in Table A. In the Table, a rating of 100 indicates 100% disease control and a rating of 0 indicates no disease control (relative to the controls). A dash (-) indicates no test results.

Septoria tritici = assay: Test D: preventive spray on wheat seedlings, Septoria tritici (wheat leaf blotch), visual disease rating; assay type: in vivo; conditions: Zymoseptoria tritici, topical, 504 h, 100 = 100% disease control, 0 = no disease control relative to controls
Text: (§1) General protocol for preparing test suspensions for Tests A-H: the test compounds were first dissolved in acetone in an amount equal to 3% of the final volume and then suspended at the desired concentration (in ppm) in acetone and purified water (50/50 mix by volume) containing 250 ppm of the surfactant Trem® 014 (polyhydric alcohol esters). The resulting test suspensions were then used in Tests A-F. Spraying a 40 ppm test suspension to the point of run-off on the test plants was the equivalent of a rate of 160 g/ha. Unless otherwise indicated, the rating values indicate a 40 ppm test suspension was used. The test suspension was sprayed to the point of run-off on wheat seedlings. The following day the seedlings were inoculated with a spore suspension of Septoria tritici (the causal agent of wheat leaf blotch) and incubated in saturated atmosphere at 24° C. for 48 h, and then moved to a growth chamber at 20° C. for 19 days, after which time visual disease ratings were made. Results for Tests A-F are given in Table A. In the Table, a rating of 100 indicates 100% disease control and a rating of 0 indicates no disease control (relative to the controls). A dash (-) indicates no test results.

[1] = system: Puccinia recondita f. sp. tritici; assay: Test E1: curative spray on wheat seedlings after inoculation, Puccinia recondita f. sp. tritici (wheat leaf rust), visual disease rating; assay type: in vivo; conditions: sprayed after inoculation (curative), 100 = 100% disease control, 0 = no disease control relative to controls
Text: General protocol for preparing test suspensions for Tests A-H: the test compounds were first dissolved in acetone in an amount equal to 3% of the final volume and then suspended at the desired concentration (in ppm) in acetone and purified water (50/50 mix by volume) containing 250 ppm of the surfactant Trem® 014 (polyhydric alcohol esters). The resulting test suspensions were then used in Tests A-F. Spraying a 40 ppm test suspension to the point of run-off on the test plants was the equivalent of a rate of 160 g/ha. Unless otherwise indicated, the rating values indicate a 40 ppm test suspension was used. Wheat seedlings were inoculated with a spore suspension of Puccinia recondita f. sp. tritici (the causal agent of wheat leaf rust) and incubated in a saturated atmosphere at 20° C. for 24 h, and then moved to a growth chamber at 20° C. for 2 days. After 2 days, the test suspension was sprayed to the point of run-off on the wheat seedlings, and then the seedlings were moved back to the growth chamber at 20° C. for 4 days. Upon removal, visual disease ratings were made. Results for Tests A-F are given in Table A. In the Table, a rating of 100 indicates 100% disease control and a rating of 0 indicates no disease control (relative to the controls). A dash (-) indicates no test results.

[2] = system: Blumeria graminis f. sp. tritici; assay: Test F: preventive spray on wheat seedlings, Blumeria graminis f. sp. tritici (wheat powdery mildew), visual disease rating; assay type: in vivo; conditions: topical, 192 h, 100 = 100% disease control, 0 = no disease control relative to controls
Text: as §1, with “spore dust” for “spore suspension”, “of Blumeria graminis f. sp.” for “of Septoria”, “tritici (also known as Erysiphe graminis f. sp. tritici, the” for “tritici (the”, “wheat powdery mildew)” for “wheat leaf blotch)”, “in” for “in saturated atmosphere at 24° C. for 48 h, and then moved to”, “for 8” for “for 19”

[3] = Single oral dose pharmacokinetics in rats, plasma and fat analysed by LC/MS (fat:plasma ratio); assay type: in vivo; conditions: vertebrate animals (rats), single oral gavage dose; compared to corresponding analogs
Protocol: The pharmacokinetic properties of compounds of Formula 1 can be measured using a wide variety of assay protocols known in the science of pharmacology. In one illustrative method involving a single oral dose, three male and three female rats receive a single dose of a test substance via oral gavage. Approximately 0.25 mL of blood is collected via tail vein immediately prior to dosing, and then at 0.25, 0.5, 1, 2, 4, 8, 12, 24 h and every 24 h thereafter until sacrifice. At sacrifice, fat is also collected to determine the fat:plasma ratio at sacrifice. […] After removal of the proteins, the plasma is analyzed for parent compound and/or metabolites by liquid chromatography-mass spectrometry (LC/MS). […] The extract is then analyzed for parent compound and/or metabolites by LC/MS. The plasma pharmacokinetic data is then analyzed using nonlinear modeling software (e.g., WinNonlin™ from Pharsight, Cary, N.C., U.S.A.) to determine half-life of the administered compound in plasma, the time after administration when the maximum plasma concentration is reached (Tmax), the maximum plasma concentration (Cmax) and the area under the plasma concentration curve (AUC). […] However, by using multiple rats sacrificed after different intervals from time of dosing, such parameters as Cmax for fat are determined.

Cc1cc(F)c(Nc2c(-c3ccc(F)cc3Cl)c(C)nn2C)c(Br)c1 [Compound 1, N-(2-bromo-6-fluoro-4-methylphenyl)-4-(2-chloro-4-fluorophenyl)-1,3-dimethyl-1H-pyrazol-5-amine]
Test B rating (% disease control) (Alternaria solani): 99
pest or weed control at 40 µg/mL (Septoria tritici): 100%
Test E1 rating (% disease control) [1]: 100
pest or weed control at 40 µg/mL [2]: 100%
distribution into fat [3]: significantly diminished distribution into fat
melting point: 132 to 133 °C
